Results published in ChEMBL document CHEMBL3352264, “Synthesis and structure-activity relationships of new carbonyl guanidine derivatives as novel dual 5-HT₂B and 5-HT₇ receptor antagonists. Part 2” (Bioorg Med Chem, 2014).
The source made the active and inactive calls. The rule behind the calls is not given here.

Columns and labels:
Mus musculus [1] = assay: Hypothermic effect in po dosed ddY mouse measured after 60 mins of treatment; assay type: ADME, organism-based; details: in vivo, 1 h
[2] = biological target: T1, 5-hydroxytryptamine receptor 2B (Homo sapiens, UniProt P41595); assay: Displacement of [3H]Mesulergine from human 5-HT2B receptor expressed in HEK293-EBNA cells by liquid scintillation counting; assay type: cell-based
T1 sequence (P41595 whole entry): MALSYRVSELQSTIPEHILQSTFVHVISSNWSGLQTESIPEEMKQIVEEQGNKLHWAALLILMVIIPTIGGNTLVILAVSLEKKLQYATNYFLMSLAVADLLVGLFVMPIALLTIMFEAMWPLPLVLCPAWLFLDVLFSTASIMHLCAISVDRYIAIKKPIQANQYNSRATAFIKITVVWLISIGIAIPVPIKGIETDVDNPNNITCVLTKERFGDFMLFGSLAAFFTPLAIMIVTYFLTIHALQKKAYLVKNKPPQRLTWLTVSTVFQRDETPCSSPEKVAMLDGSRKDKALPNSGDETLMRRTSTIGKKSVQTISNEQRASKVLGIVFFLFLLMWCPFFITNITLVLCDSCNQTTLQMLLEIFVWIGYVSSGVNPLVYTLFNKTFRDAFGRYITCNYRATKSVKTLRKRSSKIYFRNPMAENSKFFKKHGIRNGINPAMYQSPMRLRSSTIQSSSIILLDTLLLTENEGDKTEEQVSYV

[3] = biological target: T2, 5-hydroxytryptamine receptor 7 (Homo sapiens, UniProt P34969); assay: Displacement of [3H]HT from human 5-HT7 receptor expressed in CHO cells by liquid scintillation counting; assay type: cell-based
T2 sequence (P34969 whole entry): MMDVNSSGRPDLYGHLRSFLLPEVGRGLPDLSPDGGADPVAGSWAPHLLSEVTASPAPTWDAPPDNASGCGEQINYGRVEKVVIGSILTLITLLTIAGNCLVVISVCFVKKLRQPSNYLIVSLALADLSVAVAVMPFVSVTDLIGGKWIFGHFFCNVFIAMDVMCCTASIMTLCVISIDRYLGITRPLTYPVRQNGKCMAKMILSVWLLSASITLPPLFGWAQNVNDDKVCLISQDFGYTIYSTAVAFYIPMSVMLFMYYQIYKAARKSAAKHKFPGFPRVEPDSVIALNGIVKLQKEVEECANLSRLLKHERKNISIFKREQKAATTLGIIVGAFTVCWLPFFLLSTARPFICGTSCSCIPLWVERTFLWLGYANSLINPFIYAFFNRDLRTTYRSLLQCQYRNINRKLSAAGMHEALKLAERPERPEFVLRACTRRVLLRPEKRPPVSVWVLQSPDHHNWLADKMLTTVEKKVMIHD

Mus musculus [4] = assay: Reversal of 5-carboxamidotryptamine-incued hypothermia in po dosed ddY mouse measured after 60 mins of treatment; assay type: functional; details: 1 h, read-out: MED
[5] = biological target: 5-hydroxytryptamine receptor 2A (Homo sapiens, UniProt P28223); assay: Binding affinity to 5-HT2A receptor (unknown origin)
5-hydroxytryptamine receptor 2A, sequence (P28223 whole entry): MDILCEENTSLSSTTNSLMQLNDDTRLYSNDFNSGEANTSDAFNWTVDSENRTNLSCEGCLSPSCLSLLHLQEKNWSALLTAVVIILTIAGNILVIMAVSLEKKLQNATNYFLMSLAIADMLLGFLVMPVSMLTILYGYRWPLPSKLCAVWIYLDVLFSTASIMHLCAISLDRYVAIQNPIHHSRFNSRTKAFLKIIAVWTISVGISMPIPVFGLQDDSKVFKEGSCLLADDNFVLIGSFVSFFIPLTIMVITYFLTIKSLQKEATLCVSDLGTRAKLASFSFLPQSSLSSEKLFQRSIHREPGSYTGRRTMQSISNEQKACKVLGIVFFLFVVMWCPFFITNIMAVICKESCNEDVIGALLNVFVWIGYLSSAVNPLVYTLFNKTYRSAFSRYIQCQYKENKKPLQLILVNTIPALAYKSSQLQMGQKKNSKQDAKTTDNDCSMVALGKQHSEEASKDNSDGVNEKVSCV

[6] = biological target: T3, Adrenergic receptor alpha-1 (Homo sapiens, UniProt P35348+P25100+P35368); assay: Binding affinity to alpha-1 adrenergic receptor (unknown origin)
T3 sequence (P35348 whole entry): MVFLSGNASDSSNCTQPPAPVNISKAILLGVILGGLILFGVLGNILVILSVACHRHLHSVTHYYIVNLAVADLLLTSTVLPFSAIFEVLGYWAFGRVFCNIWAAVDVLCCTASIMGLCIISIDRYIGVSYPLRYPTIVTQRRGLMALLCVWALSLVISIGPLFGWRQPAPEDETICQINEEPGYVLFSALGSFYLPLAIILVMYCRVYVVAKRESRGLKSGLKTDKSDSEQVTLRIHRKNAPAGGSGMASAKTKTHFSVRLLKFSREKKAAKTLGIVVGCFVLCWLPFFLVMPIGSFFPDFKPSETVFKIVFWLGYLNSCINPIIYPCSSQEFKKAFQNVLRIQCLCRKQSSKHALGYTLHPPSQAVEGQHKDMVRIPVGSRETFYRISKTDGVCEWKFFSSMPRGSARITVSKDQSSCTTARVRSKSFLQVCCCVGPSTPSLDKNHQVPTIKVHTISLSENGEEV
T3 sequence (P25100 whole entry): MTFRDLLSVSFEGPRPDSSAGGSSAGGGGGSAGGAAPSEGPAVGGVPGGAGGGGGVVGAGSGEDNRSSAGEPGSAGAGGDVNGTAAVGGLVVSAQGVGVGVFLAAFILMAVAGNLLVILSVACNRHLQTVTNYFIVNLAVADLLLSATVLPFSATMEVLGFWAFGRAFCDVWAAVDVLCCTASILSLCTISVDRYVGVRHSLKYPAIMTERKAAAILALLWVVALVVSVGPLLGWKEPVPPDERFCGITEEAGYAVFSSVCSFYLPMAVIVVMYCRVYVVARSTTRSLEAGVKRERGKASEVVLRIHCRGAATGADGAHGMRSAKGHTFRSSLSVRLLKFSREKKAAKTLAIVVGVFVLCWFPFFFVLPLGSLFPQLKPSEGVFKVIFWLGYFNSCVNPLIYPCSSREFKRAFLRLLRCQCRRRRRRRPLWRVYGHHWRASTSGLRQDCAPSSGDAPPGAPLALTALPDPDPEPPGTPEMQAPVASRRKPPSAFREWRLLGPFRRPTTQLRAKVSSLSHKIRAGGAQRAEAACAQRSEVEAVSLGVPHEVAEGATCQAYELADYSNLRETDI
T3 sequence (P35368 whole entry): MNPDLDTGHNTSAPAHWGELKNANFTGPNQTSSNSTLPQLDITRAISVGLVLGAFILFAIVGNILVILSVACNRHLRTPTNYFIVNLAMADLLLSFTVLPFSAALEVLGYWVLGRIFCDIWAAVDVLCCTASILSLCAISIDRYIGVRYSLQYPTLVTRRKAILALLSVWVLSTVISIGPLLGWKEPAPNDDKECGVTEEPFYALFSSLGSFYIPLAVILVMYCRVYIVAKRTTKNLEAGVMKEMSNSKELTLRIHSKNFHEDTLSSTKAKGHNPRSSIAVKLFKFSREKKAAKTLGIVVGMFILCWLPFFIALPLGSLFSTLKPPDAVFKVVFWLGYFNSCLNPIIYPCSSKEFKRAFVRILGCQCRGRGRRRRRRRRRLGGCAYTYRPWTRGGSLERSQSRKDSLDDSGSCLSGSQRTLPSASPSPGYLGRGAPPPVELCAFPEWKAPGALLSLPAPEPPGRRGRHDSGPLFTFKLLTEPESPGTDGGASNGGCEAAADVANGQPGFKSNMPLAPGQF

D(2) dopamine receptor = D(2) dopamine receptor (Homo sapiens, UniProt P14416); assay: Binding affinity to dopamine D2 receptor (unknown origin)
D(2) dopamine receptor, sequence (P14416 whole entry): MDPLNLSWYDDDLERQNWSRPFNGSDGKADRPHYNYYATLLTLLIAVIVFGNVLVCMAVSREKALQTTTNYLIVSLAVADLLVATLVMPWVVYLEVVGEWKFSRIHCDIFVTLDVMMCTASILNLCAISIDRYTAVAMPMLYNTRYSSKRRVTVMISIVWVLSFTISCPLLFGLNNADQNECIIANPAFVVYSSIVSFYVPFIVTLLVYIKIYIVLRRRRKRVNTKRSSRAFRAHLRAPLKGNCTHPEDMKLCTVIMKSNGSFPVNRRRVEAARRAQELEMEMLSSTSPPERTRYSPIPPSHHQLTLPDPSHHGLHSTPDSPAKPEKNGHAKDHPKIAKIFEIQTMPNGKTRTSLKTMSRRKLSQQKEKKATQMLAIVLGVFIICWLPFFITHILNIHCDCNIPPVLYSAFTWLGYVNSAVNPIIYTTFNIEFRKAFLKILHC

Cavia porcellus [7] = assay: Suppression of 5-HT-induced dural plasma protein extravasation in po dosed Hartley guinea pig after 16 hrs; assay type: functional, organism-based
[8] = biological target: T2, 5-hydroxytryptamine receptor 7; assay: Inhibition of human 5-HT7 receptor expressed in CHO cells assessed as cAMP production by EIA system; assay type: functional, cell-based
[9] = biological target: T4, 5-hydroxytryptamine receptor 2C (Homo sapiens, UniProt P28335); assay: Binding affinity to 5-HT2C receptor (unknown origin)
T4 sequence (P28335 whole entry): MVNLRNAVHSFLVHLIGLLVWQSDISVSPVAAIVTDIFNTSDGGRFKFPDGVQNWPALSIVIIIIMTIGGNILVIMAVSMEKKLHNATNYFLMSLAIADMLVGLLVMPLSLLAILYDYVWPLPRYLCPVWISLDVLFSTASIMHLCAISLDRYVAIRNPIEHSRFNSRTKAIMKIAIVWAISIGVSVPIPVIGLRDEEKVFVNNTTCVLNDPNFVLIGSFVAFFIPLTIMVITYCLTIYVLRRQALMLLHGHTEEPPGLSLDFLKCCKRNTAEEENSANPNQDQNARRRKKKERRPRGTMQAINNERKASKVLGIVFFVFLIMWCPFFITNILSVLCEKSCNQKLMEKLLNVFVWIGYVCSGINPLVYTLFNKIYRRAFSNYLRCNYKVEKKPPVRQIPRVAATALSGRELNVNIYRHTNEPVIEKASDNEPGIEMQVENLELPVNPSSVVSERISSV

Cavia porcellus [10] = assay: Suppression of 5-HT-induced dural plasma protein extravasation in Hartley guinea pig at 30 mg/kg, po after 16 hrs; assay type: functional, organism-based; set-up: dose 30 mg/kg
[11] = biological target: T5, Muscarinic acetylcholine receptor M1 (Homo sapiens, UniProt P11229); assay: Binding affinity to muscarinic M1 receptor (unknown origin)
T5 sequence (P11229 whole entry): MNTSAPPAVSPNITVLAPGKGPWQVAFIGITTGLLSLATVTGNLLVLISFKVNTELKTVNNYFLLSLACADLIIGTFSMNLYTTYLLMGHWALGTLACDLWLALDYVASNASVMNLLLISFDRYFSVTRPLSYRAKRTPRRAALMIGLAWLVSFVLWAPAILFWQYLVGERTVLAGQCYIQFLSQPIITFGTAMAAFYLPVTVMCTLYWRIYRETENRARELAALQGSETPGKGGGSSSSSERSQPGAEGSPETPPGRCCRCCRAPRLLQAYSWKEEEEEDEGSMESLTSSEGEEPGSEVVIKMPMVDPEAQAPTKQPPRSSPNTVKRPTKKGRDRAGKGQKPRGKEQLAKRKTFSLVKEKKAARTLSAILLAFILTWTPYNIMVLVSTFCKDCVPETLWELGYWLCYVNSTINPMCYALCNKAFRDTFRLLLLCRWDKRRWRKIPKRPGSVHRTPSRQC

[12] = biological target: T1, 5-hydroxytryptamine receptor 2B; assay: Inhibition of human 5-HT2B receptor expressed in HEK293-EBNA cells assessed as [3H]PI metabolism by liquid scintillation counting; assay type: cell-based

| SMILES | Ki [2] [nM] | Ki [3] [nM] | further results |
| --- | --- | --- | --- |
| CC1c2ccccc2-c2ccc(C(=O)N=C(N)N)cc21.Cl (stereo not given) | 4.4 | 4.1 | Activity (Mus musculus [1]): Toxic |
| NC(N)=NC(=O)c1ccc2c(c1)C(O)c1ccc(Cl)cc1-2 (stereo not given) | 11 | 160 | – |
| Cc1cccc2c1-c1ccc(C(=O)N=C(N)N)cc1C2(C)O.Cl (stereo not given) | 1.1 | 4 | minimal effective dose (Mus musculus [4]): > 30 mg/kg |
| N=C(N)NC(=O)c1ccc2c(c1)C(F)c1ccccc1-2 (stereo not given) | 0.9 | 57 | – |
| Cc1cccc2c1C(O)c1cc(C(=O)N=C(N)N)ccc1-2 (stereo not given) | 0.67 | 87 | – |
| CCc1cccc2c1-c1ccc(C(=O)N=C(N)N)cc1C2O (stereo not given) | 1.6 | 4.1 | minimal effective dose (Mus musculus [4]): > 30 mg/kg |
| Cc1cccc2c1-c1ccc(C(=O)N=C(N)N)cc1C2O.Cl (stereo not given) | 0.81 | 14 | Activity (Mus musculus [1]): Toxic |
| NC(N)=NC(=O)c1ccc2c(c1)C(O)c1ccccc1-2 (stereo not given) | – | – | minimal effective dose (Mus musculus [4]): > 30 mg/kg |
| NC(N)=NC(=O)c1ccc2c(c1)C(N)c1ccccc1-2 (stereo not given) | 18 | 43 | – |

Further molecules by falling Ki [2], results first:

| Ki [2] [nM] | Ki [3] [nM] | SMILES | further results |
| --- | --- | --- | --- |
| 34 | 180 | CC(=O)NC1c2ccccc2-c2ccc(C(=O)N=C(N)N)cc21 (stereo not given) | – |
| 6.6 | 41 | NC(N)=NC(=O)c1ccc2c(c1)C(O)c1cccc(CO)c1-2 (stereo not given) | – |
| 6.3 | 50 | COCc1cccc2c1-c1ccc(C(=O)N=C(N)N)cc1C2O (stereo not given) | – |
| 4.3 | 4.3 | CC1(O)c2ccccc2-c2ccc(C(=O)N=C(N)N)cc21.Cl (stereo not given) | Ki [5]: > 1000 nM; Ki [6]: > 1000 nM; Ki (D(2) dopamine receptor): > 1000 nM; inhibition (Cavia porcellus [7]): Dose-dependent effect; IC50 [8]: 59 nM; minimal effective dose (Mus musculus [4]): 30 mg/kg; Ki [9]: 390 nM; inhibition (Cavia porcellus [10]): Active; Ki [11]: > 1000 nM; IC50 [12]: 52 nM |
| 1.7 | > 1000 | NC(N)=NC(=O)c1ccc2c(c1)C(O)c1cc(Cl)ccc1-2 (stereo not given) | – |
| 1.5 | 41 | NC(N)=NC(=O)c1ccc2c(c1)C(O)c1cccc(Cl)c1-2 (stereo not given) | – |
| 0.91 | 29 | NC(N)=NC(=O)c1ccc2c(c1)C(O)c1cccc(F)c1-2 (stereo not given) | – |
| 0.71 | 2.3 | CCc1cccc2c1-c1ccc(C(=O)N=C(N)N)cc1C2(C)O.Cl (stereo not given) | minimal effective dose (Mus musculus [4]): > 30 mg/kg |
| 0.11 | 33 | NC(N)=NC(=O)c1ccc2c(c1)C(O)c1c(Cl)cccc1-2 (stereo not given) | – |
